The target of one assay is T1, human GV sPLA2 (Homo sapiens, UniProt P39877).
T1 sequence (P39877 21-138): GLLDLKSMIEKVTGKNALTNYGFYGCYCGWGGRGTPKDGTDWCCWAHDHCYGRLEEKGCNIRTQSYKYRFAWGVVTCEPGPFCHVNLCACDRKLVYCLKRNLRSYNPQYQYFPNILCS
Nature of the assay: In vitro mixed micelle assay, GV sPLA2. It counts as biochemical. The note with it: for inhibition at 0.091 mole fraction: mixed micelles, 0.091 mole fraction of inhibitor, Table 6, read-out: GV sPLA2 % Inhib. The protocol:
At first, the percent of inhibition for each PLA2 enzyme at 0.091 mole fraction of each inhibitor was determined. […] The XI(50) is the mole fraction of the inhibitor in the total substrate interface required to inhibit the enzyme activity by 50%. […] (ii) GVI iPLA2 substrate mixed-micelles were composed of 400 μM Triton X-100, 98.3 μM PAPC, and 1.7 μM ^14C-labeled PAPC in buffer containing 100 mM HEPES, pH 7.5, 2 mM ATP, and 4 mM DTT; (iii) GV sPLA2 substrate mixed-micelles were composed of 400 μM Triton X-100, 98.3 μM PAPC, and 1.7 μM ^14C-labeled PAPC in buffer containing 50 mMTris, pH 8.0, and 5 mM […] CaCl2.

The test system of assay [1] is AA release in SW982 cells. Briefly: Ex vivo cellular arachidonic acid (AA) release assay, IL-1β stimulated. It counts as cell-based, human. The note with it: for IC50 / inhibition: Homo sapiens; for inhibition: % inhibition at 10 pM oxothiazole (so in the source), read-out: AA release % Inhib. The protocol: The effect of the oxothiazoles synthesized on the release of AA and OA in synoviocytes was evaluated as previously described.^54 The percent inhibition of AA and OA was determined at a 10 μM inhibitor concentration, while for the determination of the IC50 value the inhibitors were tested in a 0-20 μM range after IL-1β stimulation for 4 h.
The human synovial sarcoma cell line SW982 was from ATCC (UK) and was used as a model system to monitor AA/OA release and activation of GIVA cPLA2. SW982 cells were passaged bi-weekly by routine trypsin detachment and kept in a sub-confluent state. The cells were maintained in Dulbecco's Modified Eagle Medium (DMEM) supplemented with 10% FBS, 0.1 mg/mL gentamicin and 0.3 mg/mL L-glutamine at 37° C. with 10% CO2. For AA release, 5*10^5 cells were seeded pr well in a 48-well per plate format. Experiments were performed at 3 days post-confluency following overnight serum deprivation in serum-free DMEM to ensure differentiation and synchronization of the cells.
AA and OA release was analyzed as previously described.^54 At 2 days post-confluency, SW982 cells were serum-starved and labelled overnight with ^3H-AA (0.4 μCi/ml) and ^14C-OA (0.067 μCi/ml) in serum-free DMEM. Prior to the addition of oxothiazoles, the cells were washed twice with PBS containing fBSA (2 mg/ml) and PBS in order to remove unincorporated radioactivity. Cells were pretreated (1 h) with oxothiazoles prior to IL-1β stimulation (10 ng/mL, 4 h). Following IL-1β stimulation, the supernatants were cleared of detached cells by centrifugation (13000 rpm, 5 min). The release of ^3H-AA and ^14C-OA from the cells was assessed by liquid scintillation counting (LS 6500 Multi-Purpose Scintillation Counter, Beckman Coulter, Inc (USA). Adherent cells were dissolved in 1N NaOH in order to determine incorporated ^3H-AA and ^14C-OA in the cells by liquid scintillation counting. In all experiments, DMSO was included for vehicle control ([…]0.05%).
Following treatments, cells were routinely observed by microscopy to ensure unaltered cell morphology, integrity and viability. The results are given as inhibition of released ^3H-AA and ^14C-OA in the supernatants relative to total ^3H-AA and ^14C-OA incorporated into the cells, from at least three independent experiments performed in triplicates.

The mark [2] stands for this setting: SW982 cells, tested 0-20 μM, Tables 2 and 4, read-out: AA release SW982 cells (0-20 μM) IC50.
Setting [3] is: SW982 synoviocytes, 4 h IL-1β stimulation.
Where [4] appears, read: SW982 synoviocytes, tested in 0-20 μM range, 4 h IL-1β stimulation, read-out: AA release IC50.

The source of these data is patent publication US11034666B2, “Anti-inflammatory and antitumor 2-oxothiazoles and 2-oxothiophenes compounds” (Avexxin AS, priority 2013, dated 2021).

Read-outs that look alike come from different tables or passages of the source. Where only a bound is given, the exact number is not on record here.

The term IC50 denotes the concentration at which inhibition is half-maximal. Take `CCCCCCCCc1ccc(OCC(=O)c2nc(C(=O)OC)cs2)cc1` [Compound A, Methyl 2-(2-(4-octylphenoxy)acetyl)thiazole-4-carboxylate]: the “GV sPLA2 % Inhibition” value at human GV sPLA2 (Tables 2 and 4) is listed as 41.1%. Moreover, the inhibition at 0.091 mole fraction at human GV sPLA2 is 41%. Also, the IC50 is ~0.6 µM in assay [1] (setting [2]) and 0.6 µM in assay [1] (setting [4]). In assay [1] (setting [3]), the inhibition was > 90%.
Turning to `O=C(COc1ccc(-c2ccccc2)cc1)c1nccs1` [Compound B, 2-(Biphenyl-4-yloxy)-1-(thiazol-2-yl)ethanone], the inhibition at 0.091 mole fraction at human GV sPLA2 worked out at 41%. In addition, the IC50 in assay [1] (setting [2]) is ~2.5 µM; in assay [1] (setting [4]) it was 2.8 µM. For the same molecule, the inhibition in assay [1] (setting [3]) is 73%. Besides, the “inhibition of the AA release (in words)” value in assay [1] (SW982 synoviocytes) was “interesting inhibition”.
On to `O=C(COc1ccc(F)cc1)c1nccs1` [Compound C, 2-(4-Fluorophenoxy)-1-(thiazol-2-yl)ethanone], for which the inhibition at 0.091 mole fraction at human GV sPLA2 was determined as 4%. In addition, the IC50 in assay [1] (setting [2]) was > 20 µM. The inhibition in assay [1] (setting [3]) came to 0%.
For the molecule `O=C(COc1ccccc1)c1nccs1` [Compound D, 2-Phenoxy-1-(thiazol-2-yl)ethanone], the inhibition at 0.091 mole fraction on human GV sPLA2 stood at 0%. Moreover, the IC50 in assay [1] (setting [2]) and in assay [1] (setting [4]) was > 20 µM throughout. The inhibition in assay [1] (setting [3]) came to 12%.
As for `CCCCCCCCc1ccc(OCC(=O)c2nccs2)cc1` [Compound T, 2-(4-Octylphenoxy)-1-(thiazol-2-yl)ethanone], the inhibition at 0.091 mole fraction on human GV sPLA2 is 46%. For the same molecule, in assay [1] (setting [3]), the inhibition was > 90%. Moreover, the IC50 in assay [1] (setting [4]) was 3.6 µM. In assay [1] (SW982 synoviocytes), the “inhibition of the AA release (in words)” value was “interesting inhibition”.
Regarding `CCCCCCCCCCCCOCC(=O)c1nc(C(=O)OCC)cs1` [Compound W, Ethyl 2-(2-(dodecyloxy)acetyl)thiazole-4-carboxylate], the inhibition at 0.091 mole fraction on human GV sPLA2 was 48%. Also, the inhibition in assay [1] (setting [3]) was determined as 9%. The IC50 in assay [1] (setting [4]) was > 20 µM. Further, the “inhibition of the AA release (in words)” value in assay [1] (SW982 synoviocytes) was “interesting inhibition”.
Regarding `CCCCCCCCCCCCOCC(=O)c1nc(CC(=O)OCC)cs1` [Compound X, Ethyl 2-(2-(2-(dodecyloxy)acetyl)thiazol-4-yl)acetate], at human GV sPLA2, the inhibition at 0.091 mole fraction was 55%. In addition, in assay [1] (setting [3]), the inhibition worked out at 0%. Moreover, the “inhibition of the AA release (in words)” value in assay [1] (SW982 synoviocytes) is on record as “interesting inhibition”.
For the molecule `CCCCCCCCc1ccc(OCC(=O)c2nc(CC(=O)OCC)cs2)cc1` [Compound Y, Ethyl 2-(2-(2-(4-octylphenoxy)acetyl)thiazol-4-yl)acetate], the inhibition at 0.091 mole fraction on human GV sPLA2 came out at 50%. The inhibition in assay [1] (setting [3]) is 71%. In assay [1] (setting [4]), the IC50 is 5 µM.
